From the NIST ThermoML archive (doi:10.1016/j.jct.2012.03.029)

Assay: mn = molality of the nth substance listed, in mol/kg
Conditions: 101 kPa, Liquid, m1 = 0.01; for speed of sound: Sing-around technique in a fixed-path interferometer; for mass density: Vibrating tube method

OC[C@H]1O[C@@H]2O[C@H]3[C@H](O)[C@@H](O)[C@@H](O[C@H]4[C@H](O)[C@@H](O)[C@@H](O[C@H]5[C@H](O)[C@@H](O)[C@@H](O[C@H]6[C@H](O)[C@@H](O)[C@@H](O[C@H]7[C@H](O)[C@@H](O)[C@@H](O[C@H]8[C@H](O)[C@@H](O)[C@@H](O[C@H]1[C@H](O)[C@H]2O)O[C@@H]8CO)O[C@@H]7CO)O[C@@H]6CO)O[C@@H]5CO)O[C@@H]4CO)O[C@@H]3CO [β-cyclodextrin] + O
Conditions	mass density [kg/m3]	speed of sound [m/s]
293.15 K	1001.93	1484.4
298.15 K	1000.75	1498.5
303.15 K	999.217	1510.9
308.15 K	997.709	1521.5
